Results from patent US20050084509A1, “Use of citric acid and low concentrations of alpha-hydroxy acids for superficial skin treatment” (priority 2003, published 2005).

Legend:
skin = test: low concentration citric acid peel self-administered in the home; assay type: in vivo, human
signs of photoaging = test: citric acid versus glycolic acid at equal concentration and same pH; assay type: in vivo, human
ichthyosis = conditions: in vivo; cited from earlier work
photodamaged skin = test: citric acid peels on photodamaged skin (office peel study); conditions: 50 percent citric acid solution
[1] = two months after last treatment

## O=C(O)CC(O)(CC(=O)O)C(=O)O [citric acid]
skin; 10 percent citric acid solution, three treatments at two-week intervals, two months after third treatment
  subjective assessment of fine lines, wrinkles, enlarged pores, and brown spots: statistically significant improvement
skin; ten percent citric acid
  skin tolerance without neutralization: may be left on most people's skin without neutralization
Signs of photoaging; equal concentration of glycolic acid at the same pH
  reducing the signs of photoaging versus glycolic acid: more effective
Signs of photoaging; glycolic acid of the same concentration
  side effects versus glycolic acid: side effects are less
ichthyosis
  efficacy in treating ichthyosis: highly effective
Photodamaged skin; 2-5 min, neutralized, peels at one month intervals, evaluated two months after last treatment
  fine lines and wrinkles, photographs evaluated by blinded observers: statistically significant improvement
Photodamaged skin; immediately after peel
  redness immediately following a peel: increase in redness
Photodamaged skin; [1]
  fine lines, wrinkles by Primos topographic image analysis: improvement in fine lines, wrinkles
  pore size by Primos topographic image analysis: reduction in pore size
  redness by cross-polarized photography: no dramatic change in redness
